Measurements taken from patent US4606908A, “Methods and compositions for plasma and organ imaging” (Washington Research Foundation, priority 1983, dated 1986).

System: isolated rabbit hearts
Experiment: extraction and retention of tracer in isolated perfused rabbit hearts (indicator dilution, coronary sinus outflow)
Design: species or system New Zealand white rabbits
Conditions: isolated rabbit heart
Procedure: For isolated heart studies, after anesthesia with pentobarbital, the hearts were removed from 2 to 3 kg New Zealand white rabbits and mounted on a perfusion system in which the flow was controlled and the perfusion pressure monitored. The perfusate was (mM): Na 142, K 5.4, Mg 1.0, Ca 2.0, Cl 141, HCO3 12, PO4 0.435, glucose 11.0, and insulin 2 units/L, at 37° C. The coronary sinus flow and Thebesian flow into the right ventricle were collected via cannula placed through the pulmonary artery and a total effluent flow measured with graduated cylinder and stopwatch. Reference and test tracers were simultaneously injected as a mixed bolus into the aortic cannula, which supplied only the coronary system. Samples of the coronary sinus effluent were taken from the cannulated pulmonary artery at intervals of 1, 2, 4 or 10 seconds; higher sampling rates were used during the first part of the curves. The outflow of response was calculated as the fraction of dose emerging per unit time, h(t), at each time t:
F is the perfusate flow ml×s^-1 ;
C(t) is the concentration of tracer, cpm/ml; and
q0 is the injected dose of tracer, cpm.

How did the “retentions at 10-20 min” value (10-20 min) turn out when CNCCCN1c2ccccc2CCc2ccc([125I])cc21 [^125 I-DMI] was run?
The value was “about 80%”.

What about the maximal instantaneous extractions (37° C., plasma flows up to 1.5 ml/min×g) of the same compound?
Its maximal instantaneous extractions is 96%.

What about the “Overall retentions at 1 min” value (1 min, minimum value, indicator possibly impure) of the same compound?
Its value is “about 91%”.
